Results published in patent US6599931B1, “Test system for characterizing the compatibility of bioactive substances and polyvinylpyrrolidone” (Abbott GmbH & Co. KG, priority 1998, dated 2003).

Key:
[1] = Melt extrudate with PVP K 30: formation of solid solution; assay type: physicochemical; details: for Extrudate: solution (solid): 30% by weight in PVP, melt extrudate with PVP K 30; for solid solution with PVP: comparison
[2] = Dissolving and recrystallization behavior of active ingredient in 1,3-bis(1-pyrrolidonyl)butane (DHVP) test system; details: for Sol. at (temperature at which solution forms): heated; for RT: solution in DHVP: room temperature; for solubility in DHVP: comparison
From the text: The ratios of the amounts can in principle be chosen without restriction and naturally depend essentially on the properties of the active ingredient. However, it is advisable to choose the concentration ranges in the test system so that they correspond to active ingredient contents typical of extruded forms, that is to say generally from 0.1 to 70, preferably 10 to 30% by weight of active ingredient, based on the total weight of the test system. However, it is also possible in the individual case to prepare solutions or dispersions with a concentration of 60% by weight or even higher. It is preferred to carry out test series with increasing active ingredient contents. The active ingredient(s) are weighed out, mixed with the appropriate amounts of DHVP and preferably stirred, normally with a typical laboratory magnetic stirrer at 5 to 200 rpm. […] The heating is preferably carried out so as to correspond approximately to the heating rate in a subsequent melt formulation, that is to say at 0.5 to 5° C./min. The test system is preferably heated to a maximum of 140° C. However, it is also possible in the individual case to heat to the boiling point of DHVP. The test system is then allowed to cool to room temperature.
The prepared test systems are assessed spectroscopically. […] The recrystallization behavior is also assessed. The recrystallization behavior immediately after cooling to room temperature is an important criterion especially for test systems in which the active ingredient has been induced to dissolve by heating.
leaving to stand at room temperature for 24 hours
Investigation is always of whether the active ingredient has recrystallized out of the solution.

[3] = Solubility in DMSO (comparison)

Row | Structure (SMILES) | Extrudate: solution (solid) [1] | Recryst. (recrystallization) ([2]; 10% by weight in DHVP) | Sol. at (temperature at which solution forms) ([2]; 10% by weight in DHVP) | RT: solution in DHVP ([2]; 10% by weight in DHVP) | Recryst. (recrystallization) ([2]; 30% by weight in DHVP) | Sol. at (temperature at which solution forms) ([2]; 30% by weight in DHVP) | RT: solution in DHVP ([2]; 30% by weight in DHVP) | Recryst. after (time to recrystallization) ([2]; 30% by weight in DHVP) [h] | solubility in DMSO (dimethyl sulfoxide) [3] | solid solution with PVP [1] | solubility in DHVP [2]
1 | CC(=O)Nc1ccc(O)cc1 [Paracetamol] | + | Recryst.: − | Sol. at 90 °C | RT: − | Recryst.: − | Sol. at 90 °C | RT: − | – | – | – | –
2 | CN(C)CCOC1=Cc2ccccc2Sc2ccc(Cl)cc21 [Zotepine] | + | Recryst.: − | – | RT: + | – | Sol. at 70 °C | RT: − | 40 | – | – | –
3 | Cn1c(=O)c2[nH]cnc2n(C)c1=O [Theophylline] | – | – | – | – | – | – | – | – | soluble | no solid solution | insoluble
4 | COc1ccc(CCN(C)CCCC(C#N)(c2cc(OC)c(OC)c(OC)c2)C(C)C)cc1OC.Cl (stereo not shown) [Gallopamil HCl] | + | Recryst.: − | Sol. at 60 °C | RT: + | – | Sol. at 60 °C | RT: − | 96 | – | – | –
5 | CC(C)Cc1ccc(C(C)C(=O)O)cc1 (stereo not shown) [Ibuprofen] | + | Recryst.: − | – | RT: + | Recryst.: − | – | RT: + | – | soluble | solid solution | soluble
6 | CCS(=O)(=O)Oc1ccc2c(C)c(C)c(=O)oc2c1 [Esuprone] | + | Recryst.: − | – | RT: + | – | Sol. at 70 °C | RT: − | 20 | – | – | –
